Experiment [1] concerns paclitaxel-induced mechanical allodynia in male Balb/C mice. The experiment is described as follows: Paclitaxel-induced mechanical allodynia, Dynamic Plantar Aesthesiometer, DF3966A. As to conditions: 30 mg/kg/os twice daily day 1 to 14; days 3, 5, 7, 10 and 14. Format: in vivo. The procedure: (§1) For the experiments with DF3966A, animals were housed in the animal care facility of the Department of Pharmacy of the University of Naples, Italy, in a room with controlled temperature (22±1° C.), humidity (60±10%) and light (12 h per day); food and water were available ad libitum. All behavioural tests were performed between 9:00 AM and 5:00 PM, and the animals were used only once. Animal care and manipulations were conducted in conformity with International and National law and policies (EU Directive 2010/63/EU for animal experiments, ARRIVE guidelines and the Basel declaration including the 3R concept). The procedure reported here were approved by the Institutional Committee on the Ethics of Animal Experiments (CVS) of the University of Naples Federico II and by Ministero della Salute under protocol n. 2014-00884607.
The protocol used was performed according POLOMANO et al., 2001, adapted to mice. The animals received paclitaxel 4 mg/kg intraperitoneally (i.p.) for four alternate days (days 1, 3, 5, and 7). During treatment period, mechanical and cold allodynia were measured 4 hours after the injection of paclitaxel.
DF3966A was administrated 30 mg/kg/os from 1st at 14th day (twice daily; 8.00 am and 20.00 pm). […]
In DF3966A experiments, sensitivity to tactile stimulation was measured using the Dynamic Plantar Aesthesiometer (DPA, Ugo Basile, Italy). […]

Experiment [2] relates to paclitaxel-induced cold allodynia in male Balb/C mice. Put plainly: Paclitaxel-induced cold allodynia, DF3966A. Format: in vivo. As to conditions: 30 mg/kg/os twice daily day 1 to 14; days 3, 5, 7, 10 and 14. The procedure: as §1
The protocol used was performed according POLOMANO et al., 2001, adapted to mice. The animals received paclitaxel 4 mg/kg intraperitoneally (i.p.) for four alternate days (days 1, 3, 5, and 7). During treatment period, mechanical and cold allodynia were measured 4 hours after the injection of paclitaxel. […]
In the same apparatus of von Frey test, and nearly 15 minutes after the mechanical test, was performed the acetone test. […] All movements as licking, flinching or lifting of paw were recorded with a chronometer in a total testing time of 2 minutes.

The results in this text go back to patent US12102607B2, “C5aR inhibitors for use in the treatment of chemotherapy-induced iatrogenic pain” (Dompe' Farmaceutici S.P.A., priority 2017, dated 2024).

As to `C[C@H](c1ccc(Nc2nc(C(F)(F)F)cs2)cc1)c1nnn[nH]1` [DF3966A, 1-N-[4-[(1R)-1-(1H-tetrazol-5-yl)ethyl]phenyl}-4-(trifluoromethyl)-11,3-thiazol-2-amine], the “mechanical allodynia vs vehicle control animals” value in experiment [1] was “significant reduction of mechanical allodynia”. Further, in experiment [2], the “cold allodynia vs vehicle control animals” value was “significant reduction of cold allodynia”.
